Consider three compounds from article PMC4814904, “Redox proteins of hydroxylating bacterial dioxygenases establish a regulatory cascade that prevents gratuitous induction of tetralin biodegradation genes” (Scientific Reports, 2016).

As usually defined, the Kd is the constant that tells how readily two partners part at equilibrium.

The structures appear in SMILES notation. Like-named read-outs stand apart in the source and are kept apart here. A value given as a limit tells only on which side of the number the result lay.

Assay [1] has as its target T1, ThnA4 (ThnA4-His6), NAD(P)H-dependent ferredoxin reductase of tetralin dioxygenase (Sphingopyxis macrogoltabida, UniProt Q8GJE9).
T1 construct: full length, 339 residues, C-terminal His6 (pET23b, plasmid pMPO784), E. coli NCM631 host; plant-type [2Fe-2S]; FAD-reconstituted
The assay can be described thus: stopped-flow pre-steady-state reduction of ThnA4ox, fit of kA→B. In kind it is biochemical. The following applies: oxidized enzyme, potassium phosphate 50 mM pH 7.4, NaCl 10 mM, glycerine 5%, 15 °C, hydride donor.

In assay [2] the target is T1, ThnA4 (ThnA4-His6), NAD(P)H-dependent ferredoxin reductase of tetralin dioxygenase. As to the kind of experiment: UV-visible spectrum after FAD reconstitution. It is filed as binding. As to conditions: 2 mM FAD added during cell disruption; FAD partly lost during purification.

T1 sequence (Q8GJE9 entry or part of it): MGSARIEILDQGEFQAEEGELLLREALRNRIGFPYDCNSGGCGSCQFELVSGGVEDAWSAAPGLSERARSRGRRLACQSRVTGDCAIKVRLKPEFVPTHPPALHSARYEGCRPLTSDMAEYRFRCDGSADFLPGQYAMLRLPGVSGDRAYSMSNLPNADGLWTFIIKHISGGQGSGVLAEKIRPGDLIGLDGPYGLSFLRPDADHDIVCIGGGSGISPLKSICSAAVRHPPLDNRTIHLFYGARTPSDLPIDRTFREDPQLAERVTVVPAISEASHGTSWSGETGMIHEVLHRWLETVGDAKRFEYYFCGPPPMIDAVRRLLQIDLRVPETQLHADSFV

With `NC(=O)C1=CN([C@@H]2O[C@H](COP(=O)(O)OP(=O)(O)OC[C@H]3O[C@@H](n4cnc5c(N)ncnc54)[C@H](O)[C@@H]3O)[C@@H](O)[C@H]2O)C=CC1` [NADH], the Kd in assay [1] (upper limit estimated from saturation profile, read-out: Kd^NADH) is < 0.4 µM.
Consider `NC(=O)C1=CN([C@@H]2O[C@H](COP(=O)(O)OP(=O)(O)OC[C@H]3O[C@@H](n4cnc5c(N)ncnc54)[C@H](OP(=O)(O)O)[C@@H]3O)[C@@H](O)[C@H]2O)C=CC1` [NADPH], for which the equilibrium dissociation constant (Kd) in assay [1] (read-out: Kd^NADPH) was determined as 54 ± 13 µM.
Regarding `Cc1cc2nc3c(=O)[nH]c(=O)nc-3n(C[C@H](O)[C@H](O)[C@H](O)COP(=O)(O)OP(=O)(O)OC[C@H]3O[C@@H](n4cnc5c(N)ncnc54)[C@H](O)[C@@H]3O)c2cc1C` [FAD], the “UV-visible spectrum after FAD reconstitution” value in assay [2] was “reconstituted ThnA4-His6 contains the expected FAD and [2Fe-2S] redox centers”.
